Source: patent US20230114241A1, “METHODS OF TREATING EPILEPSY USING THE SAME” (Trevena, Inc., priority 2019, published 2023)
pIC50: −log10 of the molar value.

Key:
hERG channel = hERG channel (Homo sapiens, UniProt Q12809); experiment: cell-based
[1] = target: sphingosine-1-phosphate receptor 5 (S1P5) (Homo sapiens, UniProt Q9H228); experiment: Selectivity: inhibition of cAMP production (HTRF), S1P5 CHO-K1 cells; assay type: cell-based; settings: for Emax: CHO-K1, efficacy normalized to maximal efficacy of fimgolimod, read-out: hS1P5 cAMP SPAN; for EC50: inhibition of cAMP production, read-out: hS1P5 cAMP pEC50 (converted)
[2] = target: human sphingosine-1-phosphate receptor 2 (S1P2) (Homo sapiens, UniProt O95136); experiment: Selectivity: inositol monophosphate production (IP-one), S1P2 CHO-K1 cells; assay type: cell-based; settings: for Emax: CHO-K1, efficacy normalized to maximal efficacy of CYM5520, read-out: hS1P2 IP-one SPAN; for EC50: inositol monophosphate accumulation, read-out: hS1P2 IP-one pEC50 (converted)
[3] = target: human sphingosine-1-phosphate receptor 3 (S1P3) (Homo sapiens, UniProt Q99500); experiment: Selectivity: inhibition of cAMP production (HTRF), S1P3 CHO-K1 cells; assay type: cell-based; settings: for Emax: CHO-K1, efficacy normalized to maximal efficacy of fimgolimod, read-out: hS1P3 cAMP SPAN; for EC50: inhibition of cAMP production, read-out: hS1P3 cAMP pEC50 (converted)
[4] = target: T1, human sphingosine-1-phosphate receptor 1 (S1P1) (Homo sapiens, UniProt P21453); experiment: β-Arrestin2 recruitment assay (PathHunter), S1P1 CHO-K1 cells; assay type: cell-based; settings: for Emax: efficacy normalized to maximum efficacy of fingolimod, read-out: hS1P1 B-arrestin2 SPAN; for EC50: β-arrestin2 recruitment, read-out: hS1P1 B-arrestin2 pEC50 (converted)
Summary of the method: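 Agonist-driven β-arrestin2 recruitment measured by β-galactosidase complementation after 60 min compound exposure at 37 °C and 1 h detection at room temperature. Cells: stable CHO-K1 line expressing tagged human S1P1 with EA-β-arrestin2, plated the night before. Data expressed relative to fingolimod.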
Target sequence in this assay (P21453 whole entry): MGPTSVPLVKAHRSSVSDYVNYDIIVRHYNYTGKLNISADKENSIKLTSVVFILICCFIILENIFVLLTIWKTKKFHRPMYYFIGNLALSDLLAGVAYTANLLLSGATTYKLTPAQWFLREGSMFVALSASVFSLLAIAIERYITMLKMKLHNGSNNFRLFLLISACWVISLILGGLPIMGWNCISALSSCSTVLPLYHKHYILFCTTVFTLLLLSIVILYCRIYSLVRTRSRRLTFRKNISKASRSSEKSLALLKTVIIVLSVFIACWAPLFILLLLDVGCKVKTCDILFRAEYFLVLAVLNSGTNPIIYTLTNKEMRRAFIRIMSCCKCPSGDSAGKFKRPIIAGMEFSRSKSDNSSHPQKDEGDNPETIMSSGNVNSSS
Target sequence in this assay (P32121 whole entry partner): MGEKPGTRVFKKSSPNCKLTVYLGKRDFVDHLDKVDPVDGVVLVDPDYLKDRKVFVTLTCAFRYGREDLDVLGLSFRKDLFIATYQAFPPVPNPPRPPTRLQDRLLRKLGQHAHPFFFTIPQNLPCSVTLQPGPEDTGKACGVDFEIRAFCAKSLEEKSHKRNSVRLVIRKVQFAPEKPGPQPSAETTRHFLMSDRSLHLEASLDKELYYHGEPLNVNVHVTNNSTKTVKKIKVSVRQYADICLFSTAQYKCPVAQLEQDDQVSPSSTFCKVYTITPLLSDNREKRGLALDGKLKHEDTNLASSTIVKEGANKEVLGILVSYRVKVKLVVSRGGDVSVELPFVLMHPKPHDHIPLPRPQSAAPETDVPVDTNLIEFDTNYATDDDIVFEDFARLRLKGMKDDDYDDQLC

[5] = target: T1, human sphingosine-1-phosphate receptor 1 (S1P1); experiment: Inhibition of cAMP production (HTRF cAMP HiRange), S1P1 CHO-K1 cells; assay type: cell-based; settings: for Emax: CHO-K1, efficacy normalized to maximum efficacy of fingolimod, read-out: hS1P1 CAMP SPAN; for EC50: read-out: hS1P1 CAMP pEC50 (converted)
Summary of the method: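 Intracellular cAMP changes read by TR-FRET (HTRF HiRange, 1 h room temperature) after 30 min compound exposure at 37 °C. Cells: overnight-plated CHO-K1 stably expressing tagged human S1P1 with EA-β-arrestin2. Responses normalized to fingolimod.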
Target sequence in this assay (P21453 whole entry): as the sequence (P21453 whole entry) above

[6] = test system: peripheral blood lymphocytes; experiment: Lymphopenia: peripheral blood lymphocyte counts, acute and chronic s.c. dosing; assay type: in vivo; settings: c57bl/6 mice
Experimental: Compounds were tested for changes in peripheral blood lymphocytes in C57bl/6 mice. In acute studies, animals (n=5/group) were dosed subcutaneously with test compound at a dose of 3 mg/kg. Animals were sacrificed at specific time points and […] of whole blood was collected in EDTA (K2) Eppendorf tubes. Blood was stored on ice and shipped immediately overnight delivery to Charles River Laboratories for analysis. CRL ran samples through their WBC/differential panel on an Advia 120 instrument. We received peripheral lymphocyte counts (10^3 cells/μl) for each blood sample. Treatment group means were compared to a vehicle treatment group for statistical significance. In chronic studies, animals (n=6-8/group) were dosed subcutaneously for three to seven days with test compound at doses that were at least 5-fold higher than the efficacious dose in pharmacology/behavioral assays. On the last day, animals were sacrificed 45 minutes to 6 hrs after the final dose. Whole blood was collected and analyzed as described for acute studies. […]

[7] = test system: Corneal Kindled Seizure Model; experiment: Corneal Kindled Seizure Model (CKM), mouse; assay type: in vivo; set-up: key to Average Seizure Scores: seizure stage score; Stage 5 = rearing and falling, generalized clonic seizure
Experimental: Compounds are tested for efficacy in Corneal Kindled Seizure Model (CKM) Mouse. The pharmacological profile of the corneal kindled mouse is consistent with human partial epilepsy and effectively identifies the anticonvulsant potential of useful compounds for this condition, such as levetiracetam. Male C57BL/6 mice are kindled electrically with 3 sec stimulation, 3 mA, 60 Hz, and corneal electrodes to a criterion of 5 consecutive Stage 5 seizures (facial clonus and head nodding progressing to forelimb clonus, and finally rearing and falling accompanied by a generalized clonic seizure). After receiving twice daily corneal stimulations, mice typically reach the first Stage 5 seizure between approximately 10-14 days. […] Fully kindled mice are then stimulated every-other day until all other mice within the group reach the criterion of 5 consecutive Stage 5 seizures. Any mouse not achieving the fully kindled state is not included in any evaluation of investigational compounds. Testing of investigational compounds commences at least 5-7 days after the last stimulation. Mice are stimulated on the day prior to any drug evaluation to ensure that all mice to be used in the drug study will present with a Stage 5 seizure. […] After testing, the corneal kindled animals are returned to their home cage. Unlike the acute seizure tests conducted by the ETSP, each corneal kindled mouse is allowed at least 3-4 days between tests to “washout” any investigational compound after testing. Compound 469 was tested in the method described in Example 5. The data for Compound 469 is illustrated in Tables 1-4.

[8] = CHO-K1, β-arrestin2 recruitment
[9] = inhibition of cAMP production, potency
[10] = 3 mg/kg s.c., 0.5 hour, Experiment 1
[11] = 3 mg/kg s.c., 1 hour, Experiment 1
[12] = 5 mg/kg s.c., 0.5 hour, Experiment 1
[13] = 5 mg/kg s.c., 1 hour, Experiment 1
[14] = inhibition of cAMP production, S1P1

Sequence of human sphingosine-1-phosphate receptor 2 (S1P2) (O95136 whole entry): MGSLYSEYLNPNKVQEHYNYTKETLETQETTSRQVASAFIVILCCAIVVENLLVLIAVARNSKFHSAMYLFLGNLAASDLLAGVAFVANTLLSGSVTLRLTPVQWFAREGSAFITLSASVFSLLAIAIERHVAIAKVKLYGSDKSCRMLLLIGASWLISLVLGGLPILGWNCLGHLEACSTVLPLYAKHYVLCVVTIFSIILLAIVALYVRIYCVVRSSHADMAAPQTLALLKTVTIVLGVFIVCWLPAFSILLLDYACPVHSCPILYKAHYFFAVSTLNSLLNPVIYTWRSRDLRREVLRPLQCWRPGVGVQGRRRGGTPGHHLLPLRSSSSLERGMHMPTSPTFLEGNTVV
Sequence of human sphingosine-1-phosphate receptor 3 (S1P3) (Q99500 whole entry): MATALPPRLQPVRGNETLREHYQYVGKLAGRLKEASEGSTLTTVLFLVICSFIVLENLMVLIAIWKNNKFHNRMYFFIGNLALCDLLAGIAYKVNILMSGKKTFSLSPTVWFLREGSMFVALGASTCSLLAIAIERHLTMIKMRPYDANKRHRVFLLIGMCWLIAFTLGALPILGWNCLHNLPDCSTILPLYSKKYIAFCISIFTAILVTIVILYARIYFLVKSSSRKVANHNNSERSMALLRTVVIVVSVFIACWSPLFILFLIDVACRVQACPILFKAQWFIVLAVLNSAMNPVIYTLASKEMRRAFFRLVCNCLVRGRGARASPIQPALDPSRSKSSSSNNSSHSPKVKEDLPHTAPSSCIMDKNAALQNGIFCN
Sequence of sphingosine-1-phosphate receptor 5 (S1P5) (Q9H228 whole entry): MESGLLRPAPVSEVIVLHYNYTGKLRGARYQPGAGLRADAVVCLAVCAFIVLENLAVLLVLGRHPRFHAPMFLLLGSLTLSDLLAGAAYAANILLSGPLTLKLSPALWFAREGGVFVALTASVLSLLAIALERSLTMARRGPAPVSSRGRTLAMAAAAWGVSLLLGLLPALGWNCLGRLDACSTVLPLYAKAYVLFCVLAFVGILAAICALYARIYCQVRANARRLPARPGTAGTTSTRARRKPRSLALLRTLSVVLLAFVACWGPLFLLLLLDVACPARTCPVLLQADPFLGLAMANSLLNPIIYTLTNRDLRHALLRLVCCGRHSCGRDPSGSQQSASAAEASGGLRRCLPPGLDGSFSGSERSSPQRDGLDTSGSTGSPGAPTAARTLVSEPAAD
Sequence of hERG channel (Q12809 whole entry): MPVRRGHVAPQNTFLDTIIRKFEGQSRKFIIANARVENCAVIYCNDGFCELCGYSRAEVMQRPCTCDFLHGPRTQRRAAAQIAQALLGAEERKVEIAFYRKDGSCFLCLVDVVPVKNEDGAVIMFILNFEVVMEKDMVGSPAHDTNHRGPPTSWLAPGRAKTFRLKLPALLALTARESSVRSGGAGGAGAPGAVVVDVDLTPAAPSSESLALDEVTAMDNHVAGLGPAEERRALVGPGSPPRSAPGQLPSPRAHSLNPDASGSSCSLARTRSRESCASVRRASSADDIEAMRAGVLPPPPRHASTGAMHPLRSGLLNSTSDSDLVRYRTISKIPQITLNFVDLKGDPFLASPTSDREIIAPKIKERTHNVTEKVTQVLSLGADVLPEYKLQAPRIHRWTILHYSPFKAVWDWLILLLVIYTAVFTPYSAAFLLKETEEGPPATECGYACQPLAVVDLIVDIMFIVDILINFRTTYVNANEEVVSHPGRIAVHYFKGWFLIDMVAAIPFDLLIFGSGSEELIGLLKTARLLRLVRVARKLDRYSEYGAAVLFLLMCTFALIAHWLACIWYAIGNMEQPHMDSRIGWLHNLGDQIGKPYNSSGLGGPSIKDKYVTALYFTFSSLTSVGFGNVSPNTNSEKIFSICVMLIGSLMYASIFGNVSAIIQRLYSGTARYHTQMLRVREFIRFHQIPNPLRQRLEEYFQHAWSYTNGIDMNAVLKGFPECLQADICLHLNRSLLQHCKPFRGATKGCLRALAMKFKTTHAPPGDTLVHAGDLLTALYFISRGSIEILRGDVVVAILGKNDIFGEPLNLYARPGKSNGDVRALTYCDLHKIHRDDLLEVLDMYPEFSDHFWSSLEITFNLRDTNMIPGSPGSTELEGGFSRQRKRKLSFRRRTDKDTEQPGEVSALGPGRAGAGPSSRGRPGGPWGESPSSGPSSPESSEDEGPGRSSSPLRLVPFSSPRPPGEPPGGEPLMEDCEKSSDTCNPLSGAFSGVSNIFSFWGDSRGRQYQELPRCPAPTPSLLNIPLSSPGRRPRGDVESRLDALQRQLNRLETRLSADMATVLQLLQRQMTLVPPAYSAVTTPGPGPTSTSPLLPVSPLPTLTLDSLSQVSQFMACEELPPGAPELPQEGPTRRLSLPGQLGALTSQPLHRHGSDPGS

SMILES: COc1ccc(-c2noc(-c3ccc4c(c3)nnn4CC(C)(C)O)n2)c(C)c1 [Compound 26, 1-{5-[3-(4-methoxy-2-methylphenyl)-1,2,4-oxadiazol-5-yl]-1H-1,2,3-benzo-triazol-1-yl}-2-methylpropan-2-ol]
- pIC50 (hERG channel): < 5.00
- Emax [1]: < 50%
- EC50 [1]: > 10 µM
- Emax [2]: < 50%
- EC50 [2]: > 10 µM
- Emax [3]: < 50%
- EC50 [3]: > 10 µM
- Emax [4, 8]: > 75%
- EC50 ([4]; potency): < 10 µM
- Emax ([5]; inhibition of cAMP production): > 75%
- EC50 [5, 9]: < 0.316 µM

SMILES: CCC1(CC)CC(=O)c2cc(-c3nc(-c4cn[nH]c4)no3)ccc2O1 [Compound 469, 6-(3-(1H-pyrazol-4-yl)-1,2,4-oxadiazol-5-yl)-2,2-diethyl-chroman-4-one]
- Lymphopenia effect (peripheral blood lymphocytes) ([6]; 3.7 mg/kg sc, 3 days): no change: 3.7 mg/kg, 3 days
- Average Seizure Scores ([7]; 1 mg/kg, 2 hrs, Experiment 2): 3.25
- N/F (number of animals protected / total number tested) ([7]; 1 mg/kg, 2 hrs, Experiment 2): 1/8
- Average Seizure Scores ([7]; 2.5 mg/kg, 2 hrs, Experiment 2): 3.38
- N/F (number of animals protected / total number tested) ([7]; 2.5 mg/kg, 2 hrs, Experiment 2): 2/8
- Average Seizure Scores [7, 10]: 4.5
- N/F (number of animals protected / total number tested) [7, 10]: 0/8
- Average Seizure Scores [7, 11]: 3.38
- N/F (number of animals protected / total number tested) [7, 11]: 1/8
- Average Seizure Scores [7, 12]: 4
- N/F (number of animals protected / total number tested) [7, 12]: 0/8
- Average Seizure Scores [7, 13]: 3.38
- N/F (number of animals protected / total number tested) [7, 13]: 1/8
- Average Seizure Scores ([7]; 5 mg/kg, 2 hrs, Experiment 2): 2.5
- N/F (number of animals protected / total number tested) ([7]; 5 mg/kg, 2 hrs, Experiment 2): 3/8
- Average Seizure Scores ([7]; 10 mg/kg, 1 hour): 2.38
- N/F (number of animals protected / total number tested) ([7]; 10 mg/kg, 1 hour): 2/8
- Average Seizure Scores ([7]; 10 mg/kg, 2 hrs): 0.63
- N/F (number of animals protected / total number tested) ([7]; 10 mg/kg, 2 hrs): 7/8
- effect on seizures ([7]; Corneal Kindled Seizure Model, mouse): can reduce seizures
- ED50 ([7]; Corneal Kindled Seizure Model, mouse, 2 hrs time point): 6.2 mg/kg
- EC50 [5, 14]: < 0.316 µM

SMILES: CC(C)Nc1ccc(-c2nc(-c3ccc4nonc4c3)no2)cc1C#N [Compound 730, 5-[3-(2,1,3-benzoxa-diazol-5-yl)-1,2,4-oxadiazol-5-yl]-2-[(propan-2-yl)amino]benzonitrile]
- pIC50 (hERG channel): < 5.00
- Lymphopenia effect (peripheral blood lymphocytes) ([6]; 6 mg/kg sc, 7 days): no change: 6 mg/kg, 7 days

SMILES: CC(C)n1nnc2cc(-c3nc(-c4cccc5c4OCCC5)no3)ccc21 [Compound 304, 3-chroman-8-yl-5-(1-isopropylbenzotriazol-5-yl)-1,2,4-oxadiazole]
- pIC50 (hERG channel): < 5.00
- Lymphopenia effect (peripheral blood lymphocytes) ([6]; 6 mg/kg sc, 7 days): no change: 6 mg/kg, 7 days
- Emax [1]: < 50%
- EC50 [1]: > 10 µM
- Emax [2]: < 50%
- EC50 [2]: > 10 µM
- Emax [3]: < 50%
- EC50 [3]: < 10 µM
- Emax [4, 8]: > 75%
- EC50 ([4]; potency): < 10 µM
- Emax ([5]; inhibition of cAMP production): < 75%
- EC50 [5, 9]: < 0.316 µM

SMILES: CC(C)Oc1ccc(-c2ncc(-c3ccccn3)cn2)cc1C#N [Compound 742, 2-isopropoxy-5-(5-(pyridin-2-yl)pyrimidin-2-yl)benzonitrile]
- pIC50 (hERG channel): < 5.00

SMILES: CC(C)Nc1ccc(-c2ncc(-c3ccnc(O)c3)cn2)cc1C#N [Compound 743, 5-(5-(2-hydroxy-pyridin-4-yl)pyrimidin-2-yl)-2-(isopropyl-amino)benzonitrile]
- pIC50 (hERG channel): < 5.00

SMILES: N#Cc1cc(-c2nc(-c3ccc4c(c3)NC(=O)C4)no2)ccc1NCC1CC1 [Compound 497, 2-((cyclopropyl-methyl)amino)-5-(3-(2-oxoindolin-6-yl)-1,2,4-oxadiazol-5-yl)benzonitrile]
- pIC50 (hERG channel): < 5.00
- Emax ([4]; CHO-K1): > 75%
- EC50 ([4]; S1P1): < 10 µM
- Emax [5]: > 75%
- EC50 [5, 14]: < 0.316 µM

SMILES: CC(C)Oc1ccc(-c2ncc(-c3ccnc(O)c3)cn2)cc1C#N [Compound 744, 5-(5-(2-hydroxy-pyridin-4-yl)pyrimidin-2-yl)-2-isopropoxy-benzonitrile]
- pIC50 (hERG channel): < 5.00

SMILES: CC(C)Oc1ccc(-c2ncc(-c3cccnc3)cn2)cc1C#N [Compound 738, 2-isopropoxy-5-(5-(pyridin-3-yl)pyrimidin-2-yl)benzonitrile]
- pIC50 (hERG channel): < 5.00
